Source: publication PMC2653189 (PLoS ONE, 2009)

Legend:
[1] = tested on: IL-6-mediated Stat3 nuclear translocation (GFP-Stat3α); assay: HTFM nuclear translocation assay in MEF/GFP-Stat3α cells; type: cell-based, murine; settings: Mus musculus, compound 1 hour, then IL-6 200 ng/ml and IL-6sR 250 ng/ml 30 min, read-out: HTFM IC50, inhibition of IL-6-mediated Stat3 nuclear translocation
Description: Confocal and high-throughput fluorescence microscopy (HTFM) of MEF/GFP-Stat3α cells were performed as described. Briefly, for confocal fluorescence microscopy, cells were grown in 6-well plates containing a cover slip. For HTFM, cells were seeded into 96-well CC3 plates at a density of 5,000 cells/well using an automated plating system. Cells were cultured under standard conditions until 85–90% confluent. Cells were pre-treated with compound for 1 hour at 37°C then stimulated with IL-6 (200 ng/ml) and IL-6sR (250 ng/ml) for 30 minutes to provide optimal Stat3 activation and nuclear translocation in these cells, as described. Cells were fixed with 4% formaldehyde in PEM Buffer (80 mM Potassium PIPES, pH 6.8, 5 mM EGTA pH 7.0, 2 mM MgCl2) for 30 minutes at 4°C, quenched in 1 mg/ml of NaBH4 (Sigma) in PEM buffer and counterstained for 1 min in 4,6-diamidino-2-phenylindole (DAPI; Sigma; 1 mg/ml) in PEM buffer. Cover slips were examined by confocal fluorescent microscopy. Plates were analyzed by automated HTFM using the Cell Lab IC Image Cytometer (IC100) platform and Cytoshop Version 2.1 analysis software (Beckman Coulter). Nuclear translocation is quantified by using the fraction localized in the nucleus (FLIN) measurement. FLIN values were normalized by subtracting the FLIN for unstimulated cells then dividing this difference by the maximum difference (delta, Δ) in FLIN (FLIN in cells stimulated with IL-6/sIL-6R in the absence of compound minus FLIN of unstimulated cells). This ratio was multiplied by 100 to obtain the percentage of maximum difference in FLIN and was plotted, where indicated, as a function of the log compound concentration. The best-fitting curve and IC50 value were determined using 4-Parameter Logistic Model/Dose Response/XLfit 4.2, IDBS software.
Figure 4 Inhibition of cytoplasmic-to-nuclear translocation of Stat3 assessed by confocal and high-throughput fluorescence microscopy (HTFM). […] Coverslips were examined by confocal fluorescent microscopy using filters to detect GFP (column one), DAPI (column two) or both (merge; column three). In panel B, MEF-GFP-Stat3 cells were grown in 96-well plates with optical glass bottoms and pre-treated with the indicated compound at the indicated concentrations in quadruplicate for 1 hour then stimulated with IL-6 (200 ng/ml) and IL-6sR (250 ng/ml) for 30 minutes. Cells were fixed and the plates were examined by high-throughput microscopy to determine the fluorescence intensity in the nucleus (FLIN). The percent of maximum change (delta, Δ) in FLIN was calculated as described in the Methods and plotted as a function of the log of the compound concentration. […] Best-fit curves were determined using 4-Parameter Logistic Model/Dose Response/XLfit 4.2, IDBS software and were used to calculate the IC50 values (Table 2).

[2] = tested on: IL-6-mediated phosphorylation of Stat3; assay: Immunoblot of IL-6-mediated Stat3 phosphorylation in HepG2 cells; type: cell-based; settings: Homo sapiens, compound 60 min, then IL-6 30 ng/ml 30 min, read-out: pStat3 IC50, inhibition of IL-6-mediated Stat3 phosphorylation
Description: The human hepatocellular carcinoma cell line (HepG2) was grown in 6-well plates under standard conditions. Cells were pretreated with compounds (0, 1, 3, 10, 30, 100 and 300 µM) for 1 hour then stimulated under optimal conditions with either interleukin-6 (IL-6; 30 ng/ml for 30 min) to activate Stat3 or interferon gamma (IFN-γ; 30 ng/ml for 30 min) to activate Stat1 [28]. Cultures were then harvested and proteins extracted using high-salt buffer, as described. Briefly, extracts were mixed with 2× sodium dodecyl sulfate (SDS) sample buffer (125 mM Tris-HCL pH 6.8; 4% SDS; 20% glycerol; 10% 2-mercaptoethanol) at a 1∶1 ratio and heated for 5 minutes at 100°C. Proteins (20 µg) were separated by 7.5% SDS-PAGE and transferred to polyvinylidene fluoride (PVDF) membrane (Millipore, Waltham, MA) and immunoblotted. Prestained molecular weight markers (BioRad; Hercules, CA) were included in each gel. Membranes were probed serially with antibody against Stat1 pY701 or Stat3 pY705 followed by antibody against Stat1 or Stat3 (Transduction labs, Lexington, KY) then antibody against β–actin (Abcam, Cambridge, MA). Membranes were stripped between antibody probing using Restore™ Western Blot Stripping Buffer (Thermo Fisher Scientific Inc., Waltham, MA) per the manufacturer's instructions. Horseradish peroxidase-conjugated goat-anti-mouse IgG was used as the secondary antibody (Invitrogen Carlsbad, CA) and the membranes were developed with enhanced chemiluminescence (ECL) detection system (Amersham Life Sciences Inc.; Arlington Heights, IL.).
Figure 2 Effect of compounds on ligand-mediated Stat3 and Stat1 phosphorylation. […] Cells were then stimulated with IL-6 (30 ng/ml) for 30 min. Protein extracts of cells were separated by SDS-PAGE, blotted and developed serially with antibodies to pStat3, total Stat3 and β-actin. Blots were stripped between each antibody probing. Band intensities were quantified by densitometry. […] The best-fitting curve was determined using 4-Parameter Logistic Model/Dose Response/XLfit 4.2, IDBS software and was used to calculate the IC50 value (Table 1). […]

## O=C(O)c1ccc(C=CC(=O)c2ccc3c(c2)OCCO3)cc1 [Cpd3, 4-[3-(2,3-dihydro-1,4-benzodioxin-6-yl)-3-oxo-1-propen-1-yl]benzoic acid]
[1]
  IC50: 131 µM
[2]
  IC50: 91 µM
